Test results: the supplement of paper PMC10307832

Assays:
Test in all cases: relative viability (nuclei count vs DMSO), 5 days (fraction); higher = more cells survive
Bortezomib + Tozasertib = compound: CC(C)C[C@H](NC(=O)[C@H](Cc1ccccc1)NC(=O)c1cnccn1)B(O)O [Bortezomib] + Cc1cc(Nc2cc(N3CCN(C)CC3)nc(Sc3ccc(NC(=O)C4CC4)cc3)n2)n[nH]1 [Tozasertib] (partner 0.1 µM)
Outline: (§1)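 Nuclei were stained with Hoechst during a one-step fixation (final 0.05% Triton X-100, 1% formaldehyde, 1 ug/ml Hoechst) carried out 5 days after dosing, then counted on 4× images. The cells, lung cancer lines in 1536-well plates, had been dosed by pin tool the day after seeding with one drug alone or a fixed anchor-drug dose plus five library-drug doses (not always all listed) in √10 steps. Relative viability is the nuclei count in treated wells divided by that in vehicle wells, and each value is the median of duplicate plates.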

Bortezomib + Pemetrexed = compound: CC(C)C[C@H](NC(=O)[C@H](Cc1ccccc1)NC(=O)c1cnccn1)B(O)O [Bortezomib] + Nc1nc2[nH]cc(CCc3ccc(C(=O)N[C@@H](CCC(=O)O)C(=O)O)cc3)c2c(=O)[nH]1 [Pemetrexed] (partner 0.2 µM)
Outline: as §1

[1] = compound: CC1=CC(=NN1)NC2=CC(=NC(=N2)/C=C/C3=CC=CC=C3)N4CCN(CC4)C + CC(=O)c1c(C)c2cnc(Nc3ccc(N4CCNCC4)cn3)nc2n(C2CCCC2)c1=O [Palbociclib] (partner 0.5 µM)
Outline: as §1

Obatoclax + Luminespib = compound: COC1=CC(c2cc3ccccc3[nH]2)=N/C1=C\c1[nH]c(C)cc1C [Obatoclax] + CCNC(=O)c1noc(-c2cc(C(C)C)c(O)cc2O)c1-c1ccc(CN2CCOCC2)cc1 [Luminespib] (partner 0.01 µM)
Outline: as §1

Cell Line	relative viability (Bortezomib + Tozasertib; first compound 0.0002 µM)	relative viability (Bortezomib + Tozasertib; first compound 0.000632 µM)	relative viability (Bortezomib + Tozasertib; first compound 0.002 µM)	relative viability (Bortezomib + Tozasertib; first compound 0.006325 µM)	relative viability (Bortezomib + Tozasertib; first compound 0.02 µM)	relative viability (Bortezomib + Pemetrexed; first compound 0.0002 µM)	relative viability (Bortezomib + Pemetrexed; first compound 0.002 µM)	relative viability (Bortezomib + Pemetrexed; first compound 0.006325 µM)	relative viability (Bortezomib + Pemetrexed; first compound 0.02 µM)	relative viability ([1]; first compound 0.08 µM)	relative viability ([1]; first compound 0.253 µM)	relative viability ([1]; first compound 0.8 µM)	relative viability ([1]; first compound 2.53 µM)	relative viability ([1]; first compound 8 µM)	relative viability (Obatoclax + Luminespib; first compound 0.01 µM)	relative viability (Obatoclax + Luminespib; first compound 0.03162 µM)	relative viability (Obatoclax + Luminespib; first compound 0.1 µM)	relative viability (Obatoclax + Luminespib; first compound 0.3162 µM)	relative viability (Obatoclax + Luminespib; first compound 1 µM)	relative viability (Bortezomib + Pemetrexed; first compound 0.000632 µM)
NCI-H23	0.306	0.366	0.352	0.111	0.107	0.556	0.595	0.23	0.143	0.483	0.505	0.409	0.158	0.123	0.21	0.193	0.195	0.185	0.191	
UMC-11	0.19	0.208	0.197	0.229	0.204	0.694	0.745	0.39	0.17	0.327	0.342	0.323	0.232	0.232	0.993	0.968	1.05	1.07	0.428	0.875
NCI-H1975	0.676	0.831	0.099	0.0653	0.088	0.274	0.158	0.136	0.122	0.533	0.754	0.593	0.285	0.111	0.316	0.196		0.472	0.306	0.253
COR-L 105	0.357	0.345	0.216	0.254	0.19	1.03	1.13	0.494	0.303	0.432	0.381	0.406	0.275	0.323	0.97	0.908	0.724	1.75	0.236	1.12
LK-2	0.182	0.191	0.173	0.157	0.161	0.285	0.221	0.365	0.28	0.61	0.691	0.547	0.33	0.0792	0.183	0.23	0.231	0.189	0.164	0.324
EKVX	0.419	0.437	0.342	0.2	0.105	0.373	0.482	0.216	0.102	0.414	0.465	0.362	0.301	0.144	0.899	0.954	0.979	0.67	0.728	0.417
NCI-H2009	0.725	0.807	0.704	0.229	0.0821	1.05	1.02	0.553	0.0697	0.191	0.18	0.216	0.129	0.102	0.928	0.981	0.993	0.713	0.246	1.05
NCI-H838	0.251	0.298	0.327	0.109	0.123	0.252	0.264	0.161	0.161	0.243	0.241	0.169	0.127	0.106	0.226	0.222	0.3	0.243	0.188	0.231
NCI-H2085	0.873	0.872	0.697	0.302	0.281	0.827	0.991	0.403	0.206	0.473	0.463	0.459	0.345	0.266	0.389	0.432	0.44	0.283	0.347	0.873
